Data: patent US10543212B2, “Substituted amines for treating cardiac diseases” (Cardurion Pharmaceuticals, LLC, priority 2017, dated 2020)

target: T1, Full-length, GST-tagged, human CaMKIIδ (Homo sapiens, UniProt Q13557); assay: CaMKIIδ binding assay (TR-FRET with BODIPY-labeled probe ligand); conditions: CaMKIIδ binding assay, results of Table 2
T1 construct: Full-Length, Glutathione-S-Transferase(GST)-Tagged, Human CaMKIIδ was purchased from Carna Biosciences; purchased Carna Biosciences 02-111
T1 sequence (Q13557 1-478 isoform Q13557-12): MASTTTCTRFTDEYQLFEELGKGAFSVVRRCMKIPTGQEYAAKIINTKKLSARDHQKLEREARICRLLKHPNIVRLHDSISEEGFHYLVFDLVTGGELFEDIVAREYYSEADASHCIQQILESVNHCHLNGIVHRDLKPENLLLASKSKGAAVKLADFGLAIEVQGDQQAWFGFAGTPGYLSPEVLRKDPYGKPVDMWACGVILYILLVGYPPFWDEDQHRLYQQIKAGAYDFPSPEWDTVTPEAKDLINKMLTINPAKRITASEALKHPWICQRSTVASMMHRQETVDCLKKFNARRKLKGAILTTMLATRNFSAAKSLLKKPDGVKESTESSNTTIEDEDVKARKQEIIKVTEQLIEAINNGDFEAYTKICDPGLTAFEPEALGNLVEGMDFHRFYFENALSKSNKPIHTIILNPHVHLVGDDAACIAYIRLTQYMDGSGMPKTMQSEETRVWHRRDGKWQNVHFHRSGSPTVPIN
Procedure: In vitro CaMKIIδ inhibitory activity was evaluated by a binding assay.
Full-Length, Glutathione-S-Transferase(GST)-Tagged, Human CaMKIIδ was purchased from Carna Biosciences (product #02-111, Kobe, Japan). Full-length bovine calmodulin was purchased from Wako Pure Chemical Industries (Osaka, Japan). Terbium-labeled anti-GST antibody (Tb-anti-GST Ab) was purchased from Life Technologies (Carlsbad, Calif., USA). Boron-dipyrromethene (BODIPY)-labeled probe ligand was synthesized as described below.
Time-Resolved Fluorescence Resonance Energy Transfer (TR-FRET) Assay
All assays were conducted using 384-well, white, flat-bottomed plates (product #784075, Greiner Bio-One, Frickenhausen, Germany) in kinase assay buffer, which consists of 50 mM HEPES pH 7.6, 10 mM MgCl2, 1 mM EGTA, 0.01% Brig-35, 0.1 mM DTT). The fluorescent probe ligand was added at a final concentration of 300 nM to solutions containing 0.21 nM Tb-anti-GST Ab, 1 mM CaCl2), 10 μg/mL calmodulin, and 0.5 nM GST-tagged CaMKIIδ. After shaded incubation of the protein-probe mixture on ice for 30 min, the premix was dispensed in the assay plate including test inhibitors with 4 fold dilution series of eight concentrations. After 1 hr incubation at room temperature, TR-FRET signals were measured in duplicate using an EnVision microplate reader (Perkin Elmer, Waltham, Mass., USA). The solution in each well was excited with a laser (λ=340 nm) reflected by a dichroic mirror (D400/D505 (Perkin Elmer) through an excitation filter (UV (TRF) 340, (Perkin Elmer)), and fluorescence from Tb and BODIPY were detected through two emission filters (CFP 495 (Perkin Elmer) for Tb, Emission 520 (Perkin Elmer) for BODIPY).
The percentage of inhibition of test compounds was calculated according to equation (1) Inhibition (%)=100×([…]−T)/(μH−μL) (1)
Where T is the value of the wells containing test compounds and μH and μL are the mean values of the 0% and 100% inhibition control wells, respectively. The values of the 0 and 100% controls were the signals obtained in the absence and presence of 3 μM its parent compound, respectively. The half maximal inhibitory concentration (IC50) of test compounds was calculated by fitting the data with the logistic equation using XLfit (IDBS, Guildford, UK). The IC50 was classified according to the following activity ranks.

Question: With `COC1CCC(N2CCC(n3cc(Nc4ncc(-c5ccc(Cl)c(OC(C)Cn6cnnn6)c5)cn4)c(C(F)(F)F)n3)CC2)CC1` (single isomer, unassigned; less polar) [Example 568, (S)-5-(3-((1-(1H-tetrazol-1-yl)propan-2-yl)oxy)-4-chlorophenyl)-N-(1-(1-(cis or trans-4-methoxycyclohexyl)piperidin-4-yl)-3-(trifluoromethyl)-1H-pyrazol-4-yl)pyrimidin-2-amine, less polar] as the compound, how does the IC50 read?
Answer: < 0.01 µM

Question: `COC1CCC(N2CCC(n3cc(Nc4ncc(-c5ccc(Cl)c(OC(C)Cn6cnnn6)c5)cn4)c(C(F)(F)F)n3)CC2)CC1` (single isomer, unassigned; more polar) [Example 556, (S)-5-(3-((1-(1H-tetrazol-1-yl)propan-2-yl)oxy)-4-chlorophenyl)-N-(1-(1-(cis or trans-4-methoxycyclohexyl)piperidin-4-yl)-3-(trifluoromethyl)-1H-pyrazol-4-yl)pyrimidin-2-amine, more polar] was tested. Which IC50 did it give?
Answer: < 0.01 µM

Question: How did the IC50 turn out when `C[C@@H](Cn1cnnn1)Oc1cc(-c2cnc(Nc3ccc4c(c3)N(C(=O)C3CCN(C)CC3)CC4)nc2)ccc1Cl` [Example 435, (S)-(6-((5-(3-((1-(1H-tetrazol-1-yl)propan-2-yl)oxy)-4-chlorophenyl)pyrimidin-2-yl)amino)indolin-1-yl) (1-methylpiperidin-4-yl)methanone] was run?
Answer: < 0.01 µM

Question: How did the IC50 turn out when `C[C@@H](Cn1cnnn1)Oc1cc(-c2cnc(Nc3ccc4c(c3)N(C(=O)CCCN(C)C)CC4)nc2)ccc1Cl` [Example 436, (S)-1-(6-((5-(3-((1-(1H-tetrazol-1-yl)propan-2-yl)oxy)-4-chlorophenyl)pyrimidin-2-yl)amino)indolin-1-yl)-4-(dimethylamino)butan-1-one] was run?
Answer: < 0.01 µM

same assay, conditions: CaMKIIδ binding assay; activity class per Table 2

Question: How did the IC50 turn out when `C[C@@H](Cn1cnnn1)Oc1cc(-c2cnc(Nc3cn([C@@H]4CCNC[C@H]4O)nc3C(F)(F)F)nc2)ccc1Cl` (mixture of isomers) [Example 892, trans-4-(4-((5-(3-(((S)-1-(1H-tetrazol-1-yl)propan-2-yl)oxy)-4-chlorophenyl)pyrimidin-2-yl)amino)-3-(trifluoromethyl)-1H-pyrazol-1-yl)piperidin-3-ol] was run?
Answer: < 0.01 µM

Question: `C[C@@H](Cn1cnnn1)Oc1cc(-c2cnc(Nc3cn([C@@H]4CCN(C5CCOCC5)C[C@H]4O)nc3C(F)(F)F)nc2)ccc1Cl` (mixture of isomers) [Example 897, trans-4-(4-((5-(3-(((S)-1-(1H-tetrazol-1-yl)propan-2-yl)oxy)-4-chlorophenyl)pyrimidin-2-yl)amino)-3-(trifluoromethyl)-1H-pyrazol-1-yl)-1-(tetrahydro-2H-pyran-4-yl)piperidin-3-ol] was tested. Which IC50 did it give?
Answer: < 0.01 µM

Question: How did the IC50 turn out when `C[C@@H](Cn1cnnn1)Oc1cc(-c2cnc(Nc3cn([C@@H]4CCN(C5CCC5)C[C@H]4O)nc3C(F)(F)F)nc2)ccc1Cl` (mixture of isomers) [Example 898, trans-4-(4-((5-(3-(((S)-1-(1H-tetrazol-1-yl)propan-2-yl)oxy)-4-chlorophenyl)pyrimidin-2-yl)amino)-3-(trifluoromethyl)-1H-pyrazol-1-yl)-1-cyclobutylpiperidin-3-ol] was run?
Answer: < 0.01 µM

Question: Which IC50 does the source give for `C[C@@H](Cn1cnnn1)Oc1cc(-c2cnc(Nc3cn([C@@H]4CN(C5CCC5)CC[C@H]4O)nc3C(F)(F)F)nc2)ccc1Cl` (mixture of isomers) [Example 904, trans-3-(4-((5-(3-(((S)-1-(1H-tetrazol-1-yl)propan-2-yl)oxy)-4-chlorophenyl)pyrimidin-2-yl)amino)-3-(trifluoromethyl)-1H-pyrazol-1-yl)-1-cyclobutylpiperidin-4-ol] here?
Answer: < 0.01 µM

same assay, conditions: Table 2; activity class for CaMKIIδ

Question: Which IC50 does the source give for `C[C@@H](Cn1cnnn1)Oc1cc(-c2cnc(Nc3cn([C@@H]4CCCC[C@H]4O)nc3C(F)(F)F)nc2)ccc1Cl` (mixture of isomers) [Example 704, trans-2-(4-((5-(3-(((S)-1-(1H-tetrazol-1-yl)propan-2-yl)oxy)-4-chlorophenyl)pyrimidin-2-yl)amino)-3-(trifluoromethyl)-1H-pyrazol-1-yl)cyclohexan-1-ol] here?
Answer: < 0.01 µM
